{"source": "BindingDB's records for doi:10.1021/jm00101a009", "about": "(University of Minnesota, 1992)", "data": [{"test": "The compound was evaluated for binding affinity against Opioid receptor delta 1 in guinea pig brain membrane using [3H]- DPDPE as ligand", "units": {"Ki": "nM"}, "values": [{"smiles": "Oc1ccc2c3c1O[C@H]1c4[nH]c5ccccc5c4C[C@H]4C(C2)NCC[C@]314", "Ki": 935}, {"smiles": "Oc1ccc2c3c1O[C@H]1c4[nH]c5ccccc5c4C[C@@]4(O)C(C2)N(CCc2ccccc2)CC[C@]314", "note": "[22-phenethyl-14-oxa-11,22-diazaheptacyclo[13.9.1.01,13.02,21.04,12.05,10.019,25]pentacosa-4(12),5(10),6,8,15(25),16,18-heptaene-2,16-diol]", "Ki": 11}, {"smiles": "Oc1ccc2c3c1O[C@H]1c4[nH]c5ccccc5c4C[C@@]4(O)C(C2)NCC[C@]314", "Ki": 11}, {"smiles": "Oc1ccc2c3c1O[C@H]1c4[nH]c5ccccc5c4C[C@H]4C(C2)N(CCc2ccccc2)CC[C@]314", "note": "[22-phenethyl-14-oxa-11,22-diazaheptacyclo[13.9.1.01,13.02,21.04,12.05,10.019,25]pentacosa-4(12),5(10),6,8,15(25),16,18-heptaen-16-ol]", "Ki": 22}]}]}
